The target in one experiment is MNK2 (Homo sapiens (Human), UniProt Q9HBH9). The experiment in a line: In vitro MNK kinase assay (Caliper LabChip mobility shift). Format: biochemical. Conditions: enzymatic, 250 μM ATP; read-out: IC50 Mnk2.
For a further experiment, the target named is MNK1 (Homo sapiens, UniProt Q9BUB5). The description is as above. The experiment is classed as biochemical. As to conditions: enzymatic, 1.2 mM ATP; read-out: IC50 Mnk1.

pIC50: −log10 of the molar value.

MNK2, sequence (Q9HBH9 84-388): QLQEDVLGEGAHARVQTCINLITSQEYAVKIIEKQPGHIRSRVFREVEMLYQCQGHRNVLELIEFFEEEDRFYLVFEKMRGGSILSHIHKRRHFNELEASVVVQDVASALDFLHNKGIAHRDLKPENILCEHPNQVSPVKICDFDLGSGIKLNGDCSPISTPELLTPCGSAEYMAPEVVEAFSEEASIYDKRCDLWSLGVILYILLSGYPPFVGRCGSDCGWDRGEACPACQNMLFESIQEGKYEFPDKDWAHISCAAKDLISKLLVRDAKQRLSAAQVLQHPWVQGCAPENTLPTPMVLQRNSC

Turning to `N#Cc1ccc(-c2cnc3ccc(-c4ccc(C(=O)N5CCN(C(=O)c6ccccc6)CC5)cc4)cn23)cc1` [Example 126, 4-(6-(4-(4-benzoylpiperazine-1-carbonyl)phenyl)imidazo[1,2-a]pyridin-3-yl)benzonitrile], the pIC50 on MNK2 and at MNK1 was more than 7.00 throughout.

As for `N#Cc1ccc(-c2cnc3ccc(-c4ccc(C(=O)N5CCOCC5)c(F)c4)cn23)cc1` [Example 162, 4-(6-(3-fluoro-4-(morpholine-4-carbonyl)phenyl)imidazo[1,2-a]pyridin-3-yl)benzonitrile], the negative logarithm of the IC50 (pIC50) at MNK2 and on MNK1 was more than 6.00 in each case.

Regarding `N#Cc1ccc(-c2cnc3ccc(-c4ccc(C(=O)N5CCC(O)CC5)cc4)nn23)cc1` [Example 55, 4-(6-(4-(4-hydroxypiperidine-1-carbonyl)phenyl)imidazo[1,2-b]pyridazin-3-yl)benzonitrile], the pIC50 on MNK2 and at MNK1 was more than 7.00 throughout.

In the case of `CN1CCN(C(=O)c2ccc(-c3ccc4ncc(-c5ccc(C#N)cc5)n4n3)cc2)CC1=O` [Example 69, 4-(6-(4-(4-methyl-3-oxopiperazine-1-carbonyl)phenyl)imidazo[1,2-b]pyridazin-3-yl)benzonitrile], the pIC50 on MNK2 and at MNK1 was more than 7.00 throughout.

On to `N#Cc1ccc(-c2cnc3ccc(-c4ccc(C(=O)N5CCNCC5)c(O)c4)cn23)cc1` [Example 159, 4-(6-(3-hydroxy-4-(piperazine-1-carbonyl)phenyl)imidazo[1,2-a]pyridin-3-yl)benzonitrile], for which the pIC50 on MNK2 and at MNK1 was more than 7.00 each time.

For `Cc1cc(-c2ccc3ncc(-c4ccc(C#N)cc4)n3n2)ccc1C(=O)N1CCN(C)CC1` [Example 74, 4-(6-(3-methyl-4-(4-methylpiperazine-1-carbonyl)phenyl)imidazo[1,2-b]pyridazin-3-yl)benzonitrile], the pIC50 on MNK2 and at MNK1 was more than 7.00 throughout.

With `CC1(C)CCN(C(=O)c2ccc(-c3cn4c(-c5ccc(C(N)=O)cc5)cnc4cn3)cc2)CC1` [Example 3, 4-(6-(4-(4,4-dimethylpiperidine-1-carbonyl)phenyl)imidazo[1,2-a]pyrazin-3-yl)benzamide], the values for the pIC50 at MNK2 and on MNK1 were more than 7.00 and more than 6.00, respectively.

`CN1CCN(C(=O)c2ccc(-c3ccc4ncc(-c5ccc(C#N)cc5)n4c3)c(F)c2)CC1` [Example 140, 4-(6-(2-fluoro-4-(4-methylpiperazine-1-carbonyl)phenyl)imidazo[1,2-a]pyridin-3-yl)benzonitrile]: the pIC50 on MNK2 and at MNK1 was more than 7.00 in each case.

In the case of `Cc1cc2ncc(-c3ccc(C#N)cc3)n2cc1-c1ccc(C(=O)N2CCC(C)(N)CC2)cc1` [Example 137, 4-(6-(4-(4-amino-4-methylpiperidine-1-carbonyl)phenyl)-7-methylimidazo[1,2-a]pyridin-3-yl)benzonitrile], the pIC50 is more than 7.00 at MNK2 and more than 6.00 on MNK1.

Regarding `N#Cc1ccc(-c2cnn3ccc(-c4ccc(C(=O)N5CCOCC5)cc4)nc23)cc1` [Example 185, 4-(5-(4-(morpholine-4-carbonyl)phenyl)pyrazolo[1,5-a]pyrimidin-3-yl)benzonitrile], the pIC50 at MNK2 and at MNK1 was more than 7.00 throughout.

For `CC(=O)NC1CCN(C(=O)c2ccc(-c3ccc4ncc(-c5ccc(C#N)cc5)n4n3)cc2)CC1` [Example 57, N-(1-(4-(3-(4-cyanophenyl)imidazo[1,2-b]pyridazin-6-yl)benzoyl)piperidin-4-yl)acetamide], the pIC50 at MNK2 and at MNK1 was more than 7.00 each time.

As to `CN1CCN(C(=O)c2ccc(-c3ccc4ncc(-c5ccc(C#N)cc5)n4c3)cc2F)CC1` [Example 142, 4-(6-(3-fluoro-4-(4-methylpiperazine-1-carbonyl)phenyl)imidazo[1,2-a]pyridin-3-yl)benzonitrile], the pIC50 on MNK2 was more than 7.00; on MNK1, more than 6.00.

On to `COc1cc(C(=O)N2CCN(C)CC2)ccc1-c1ccc2ncc(-c3ccc(C#N)cc3)n2n1` [Example 78, 4-(6-(2-methoxy-4-(4-methylpiperazine-1-carbonyl)phenyl)imidazo[1,2-b]pyridazin-3-yl)benzonitrile], for which the pIC50 on MNK2 and on MNK1 was more than 7.00 each time.

For `CN1CCCN(C(=O)c2ccc(-c3cn4c(-c5ccc(C#N)cc5)cnc4cn3)cc2)CC1` [Example 17, 4-(6-(4-(4-methyl-1,4-diazepane-1-carbonyl)phenyl)imidazo[1,2-a]pyrazin-3-yl)benzonitrile], the pIC50 at MNK2 and at MNK1 was more than 6.00 each time.

With `CC1(N)CCN(C(=O)c2ccc(-c3ccc4ncc(-c5ccc(C#N)cc5)n4n3)cc2)CC1` [Example 58, 4-(6-(4-(4-amino-4-methylpiperidine-1-carbonyl)phenyl)imidazo[1,2-b]pyridazin-3-yl)benzonitrile], the pIC50 on MNK2 and at MNK1 was more than 7.00 each time.

Regarding `CN1CCC(C2CCN(C(=O)c3ccc(-c4ccc5ncc(-c6ccc(C#N)cc6)n5c4)cc3)CC2)CC1` [Example 105, 4-(6-(4-(1′-methyl-4,4′-bipiperidine-1-carbonyl)phenyl)imidazo[1,2-a]pyridin-3-yl)benzonitrile], the pIC50 at MNK2 and at MNK1 was more than 7.00 each time.

With `N#Cc1ccc(-c2cnc3cnc(-c4ccc(C(=O)N5CCOCC5)cc4)cn23)cc1` [Example 7, 4-(6-(4-(morpholine-4-carbonyl)phenyl)imidazo[1,2-a]pyrazin-3-yl)benzonitrile], the pIC50 at MNK2 and on MNK1 was more than 6.00 each time.

As to `CN1CCCCC12CCN(C(=O)c1ccc(-c3ccc4ncc(-c5ccc(C#N)cc5)n4c3)cc1)CC2` [Example 119, 4-(6-(4-(1-methyl-1,9-diazaspiro[5.5]undecane-9-carbonyl)phenyl)imidazo[1,2-a]pyridin-3-yl)benzonitrile], the pIC50 on MNK2 and on MNK1 was more than 7.00 in each case.

Take `N#Cc1ccc(-c2cnn3ccc(-c4ccc(C(=O)N5CCCOCC5)cc4)nc23)cc1` [Example 181, 4-(5-(4-(1,4-oxazepane-4-carbonyl)phenyl)pyrazolo[1,5-a]pyrimidin-3-yl)benzonitrile]: the pIC50 at MNK2 and at MNK1 was more than 7.00 in each case.

In the case of `CN1CCN(C(=O)c2ccc(-c3ccc4ncc(-c5ccc(C#N)cc5)n4c3)cc2)CC1` [Example 95, 4-(6-(4-(4-Methylpiperazine-1-carbonyl)phenyl)imidazo[1,2-a]pyridin-3-yl)benzonitrile], the pIC50 on MNK2 and on MNK1 was more than 7.00 each time.

With `N#Cc1ccc(-c2cnc3ccc(-c4ccc(C(=O)N5CCCOCC5)cc4)nn23)cc1` [Example 64, 4-(6-(4-(1,4-oxazepane-4-carbonyl)phenyl)imidazo[1,2-b]pyridazin-3-yl)benzonitrile], the pIC50 at MNK2 and at MNK1 was more than 7.00 each time.

As for `CN1CCN(C(=O)c2ccc(-c3ccc4ncc(-c5ccc6c(c5)CC(=O)N6)n4n3)cc2)CC1` [Example 85, 5-(6-(4-(4-methylpiperazine-1-carbonyl)phenyl)imidazo[1,2-b]pyridazin-3-yl)indolin-2-one], the pIC50 on MNK2 and on MNK1 was more than 7.00 each time.

Turning to `CC(=O)Nc1cc(-c2ccc3ncc(-c4ccc(C#N)cc4)n3c2)ccc1C(=O)N1CCN(C)CC1` [Example 149, N-(5-(3-(4-cyanophenyl)imidazo[1,2-a]pyridin-6-yl)-2-(4-methylpiperazine-1-carbonyl)phenyl)acetamide], the negative-log IC50 (pIC50) at MNK2 and on MNK1 was more than 6.00 in each case.

Regarding `N#Cc1ccc(-c2cnc3ccc(-c4ccc(C(=O)N5CCOCC5)c(O)c4)cn23)cc1` [Example 167, 4-(6-(3-hydroxy-4-(morpholine-4-carbonyl)phenyl)imidazo[1,2-a]pyridin-3-yl)benzonitrile], the pIC50 on MNK2 and on MNK1 was more than 7.00 each time.

As to `CNc1cc(-c2ccc3ncc(-c4ccc(C#N)cc4)n3c2)ccc1C(=O)N1CCN(C)CC1` [Example 150, 4-(6-(3-(methylamino)-4-(4-methylpiperazine-1-carbonyl)phenyl)imidazo[1,2-a]pyridin-3-yl)benzonitrile], the pIC50 at MNK2 and at MNK1 was more than 7.00 each time.

In the case of `CN1CCN(C(=O)c2ccc(-c3ccc4ncc(-c5ccc(C#N)cc5)n4c3)cc2)CC1=O` [Example 130, 4-(6-(4-(4-methyl-3-oxopiperazine-1-carbonyl)phenyl)imidazo[1,2-a]pyridin-3-yl)benzonitrile], the pIC50 on MNK2 and at MNK1 was more than 7.00 throughout.

Take `N#Cc1ccc(-c2cnc3cnc(-c4ccc(C(=O)N5CCC(N)CC5)c(F)c4)cn23)cc1` [Example 29, 4-(6-(4-(4-aminopiperidine-1-carbonyl)-3-fluorophenyl)imidazo[1,2-a]pyrazin-3-yl)benzonitrile]: the pIC50 on MNK2 and at MNK1 was more than 6.00 each time.

In the case of `CN1CCN(C2CCN(C(=O)c3ccc(-c4ccc5ncc(-c6ccc7c(c6)CC(=O)N7)n5n4)cc3)CC2)CC1` [Example 89, 5-(6-(4-(4-(4-methylpiperazin-1-yl)piperidine-1-carbonyl)phenyl)imidazol[1,2-b]pyridazin-3-yl)indolin-2-one], the pIC50 on MNK2 and at MNK1 was more than 7.00 each time.

For `N#Cc1ccc(-c2cnc3ccc(-c4ccc(C(=O)N5CCC(CN)CC5)cc4)cn23)cc1` [Example 123, 4-(6-(4-(4-(aminomethyl)piperidine-1-carbonyl)phenyl)imidazo[1,2-a]pyridin-3-yl)benzonitrile], the pIC50 on MNK2 and on MNK1 was more than 7.00 each time.

Regarding `N#Cc1ccc(-c2cnc3ccc(-c4ccc(C(=O)N5CCNC(=O)C5)cc4)cn23)cc1` [Example 102, 4-(6-(4-(3-oxopiperazine-1-carbonyl)phenyl)imidazo[1,2-a]pyridin-3-yl)benzonitrile], the pIC50 at MNK2 and on MNK1 was more than 7.00 in each case.

For the compound `Cc1nnc(C2(C)CCN(C(=O)c3ccc(-c4ccc5ncc(-c6ccc(C#N)cc6)n5c4)cc3)CC2)o1` [Example 135, 4-(6-(4-(4-methyl-4-(5-methyl-1,3,4-oxadiazol-2-yl)piperidine-1-carbonyl)phenyl)imidazo[1,2-a]pyridin-3-yl)benzonitrile], the pIC50 on MNK2 and at MNK1 was more than 7.00 each time.

The pIC50 is the IC50 on a negative log10 scale, so that one unit is a factor of ten.

The values above are taken from US9908886B2 (Agency for Science, Technology and Research, priority 2012, dated 2018).
